Test results: patent US20130244879A1, “USE OF LIPO-CHITOOLIGOSACCHARIDES TO INITIATE EARLY FLOWERING AND FRUIT DEVELOPMENT IN PLANTS AND RELATED METHODS AND COMPOSITIONS” (NOVOZYMES BIOLOGICALS HOLDING A/S, priority 2003, published 2013)

Legend:
Tomato [1] = assay: Experiment 6: foliar application of LCO at variable growth stages, field tomato; type: in vivo; design: Fruit # % vs. control / % of weight vs. control: concentration or dose not given beside the values
Text: Tomato seedlings (6-leaf stage) were transplanted in farmland. The plants were watered on the day that they were transplanted and whenever the soil was very dry during the season. Fertilizer (20-20-20) was applied at 250 kg/ha to the tomato field before transplantation. All tomato plants were supported by sticks when they were heavily loaded with fruit. Fruit yield (in the table) was finally cumulated at the end of the season.

Cobra tomatoes = assay: Trial 1: LCO dose and delivery medium on greenhouse tomato (Cobra); type: in vivo; details: for more flowers than other treatments and control: 50 ng LCO
Protocol: Cobra (a hybrid cultivar) was used to examine optimum application dose between 10 and 100 ng/plant at one or two applications and the LCO delivery medium. The levels chosen were the extremes of beneficial doses determined previously in tomato field trials. The delivery media tested were LCO in water, Apex and centrifuged Apex. The first application of LCO was made 10 days after transplanting. When applied a second time it was 2 weeks after the first application. The following parameters were tested: leaf number, plant height, number of cluster, number of flower, number of fruit. Observations were made continuously for approximately a two-month period, at one-week intervals until plant growth was limited by pot bound roots. The cobra seedlings were transplanted 32 days after seeding, the first application was 10 days thereafter, the second application was 14 days after the first application. The fruits were harvested 6 weeks after the second application.

Tomato [2] = assay: Experiment 16: LCO application on fruit number and weight at end of season; type: in vivo; details: LCO applied once at 50 ng, 20-40 days after transplantation
Text: Tomato seedlings (6 leaf-stage) were transplanted. The plants were watered on the day they were transplanted and whenever the soil was very dry during the season. Fertilizer (20-20-20) was applied at 250 kg/ha to the tomato field before transplantation. All tomato plants were supported with sticks when they were heavily loaded with fruit. Fruit yield was finally cumulated at the end of the season 115 days after transplant.

Marigolds = assay: Experiment 12: LCO application on marigolds; type: in vivo, Marigold; details: best treatments
Protocol: Marigolds were planted in 32-cell flat and LCO was applied foliarly to plants 4 weeks after sowing (4 flats/treatment, 1 ml/plant applied containing various levels of LCO). Data collection started from the first flower appearing.

Marigold = assay: Experiment 5: foliar application of LCO to bedding plants (Marigold); type: in vivo
Text: This is a growth room study. Seeds of garden plant species were selected on the basis of seed-purchase popularity (Norseco, Montreal), grown in trays of Pro-Mix (NB. trademarked name) Seeding Medium, and at some size were transplanted into trays of 36 and 32 wells containing the same medium. Growth proceeded under lights in the growth room. Some 2 weeks before expected flowering, 16 young plants were sprayed with each of various levels of LCO leaving control plants untreated. The results are presented in Table 5A on bud formation and where possible opened flowers.

[3] = LCO applied 10 + 20 + 30 + 40 + 50 DATP
[4] = LCO applied 10 + 20 + 30 + 40 DATP
[5] = 50 ml/16 plants of 3 × 10^−8M LCO

Substance: Lipo-chitooligosaccharides [LCO]
- % of weight vs. control (Tomato [1]; [3]): 27.8%
- Average Weight (g/fruit) (Tomato [1]; [3]): 126.8 g/fruit
- Fruit # % vs. control (Tomato [1]; [3]): 38.41%
- Fruit on 24 plants (Tomato [1]; [3]): 1373a
- Weight (kg) per 24 plants (Tomato [1]; [3]): 174.07a kg
- % of weight vs. control (Tomato [1]; [4]): 12.0%
- Average Weight (g/fruit) (Tomato [1]; [4]): 128.0 g/fruit
- Fruit # % vs. control (Tomato [1]; [4]): 20.06%
- Fruit on 24 plants (Tomato [1]; [4]): 1191abc
- Weight (kg) per 24 plants (Tomato [1]; [4]): 152.50ab kg
- % of weight vs. control (Tomato [1]; LCO applied 10 + 20 + 30 DATP): 18.9%
- Average Weight (g/fruit) (Tomato [1]; LCO applied 10 + 20 + 30 DATP): 126.3 g/fruit
- Fruit # % vs. control (Tomato [1]; LCO applied 10 + 20 + 30 DATP): 29.23%
- Fruit on 24 plants (Tomato [1]; LCO applied 10 + 20 + 30 DATP): 1282ab
- Weight (kg) per 24 plants (Tomato [1]; LCO applied 10 + 20 + 30 DATP): 161.89ab kg
- % of weight vs. control (Tomato [1]; LCO applied 10 + 20 DATP): 12.7%
- Average Weight (g/fruit) (Tomato [1]; LCO applied 10 + 20 DATP): 136.4 g/fruit
- Fruit # % vs. control (Tomato [1]; LCO applied 10 + 20 DATP): 13.41%
- Fruit on 24 plants (Tomato [1]; LCO applied 10 + 20 DATP): 1125bc
- Weight (kg) per 24 plants (Tomato [1]; LCO applied 10 + 20 DATP): 153.43ab kg
- % of weight vs. control (Tomato [1]; LCO applied 10 DATP (7/4)): 10.8%
- Average Weight (g/fruit) (Tomato [1]; LCO applied 10 DATP (7/4)): 118.2 g/fruit
- Fruit # % vs. control (Tomato [1]; LCO applied 10 DATP (7/4)): 28.63%
- Fruit on 24 plants (Tomato [1]; LCO applied 10 DATP (7/4)): 1276ab
- Weight (kg) per 24 plants (Tomato [1]; LCO applied 10 DATP (7/4)): 150.88ab kg
- % of weight vs. control (Tomato [1]; LCO applied 20 DATP (7/15)): 20.3%
- Average Weight (g/fruit) (Tomato [1]; LCO applied 20 DATP (7/15)): 130.0 g/fruit
- Fruit # % vs. control (Tomato [1]; LCO applied 20 DATP (7/15)): 27.02%
- Fruit on 24 plants (Tomato [1]; LCO applied 20 DATP (7/15)): 1260ab
- Weight (kg) per 24 plants (Tomato [1]; LCO applied 20 DATP (7/15)): 163.78ab kg
- % of weight vs. control (Tomato [1]; LCO applied 30 DATP (7/25)): 17.6%
- Average Weight (g/fruit) (Tomato [1]; LCO applied 30 DATP (7/25)): 133.5 g/fruit
- Fruit # % vs. control (Tomato [1]; LCO applied 30 DATP (7/25)): 20.87%
- Fruit on 24 plants (Tomato [1]; LCO applied 30 DATP (7/25)): 1199abc
- Weight (kg) per 24 plants (Tomato [1]; LCO applied 30 DATP (7/25)): 160.11ab kg
- % of weight vs. control (Tomato [1]; LCO applied 40 DATP (8/8)): 14.5%
- Average Weight (g/fruit) (Tomato [1]; LCO applied 40 DATP (8/8)): 118.3 g/fruit
- Fruit # % vs. control (Tomato [1]; LCO applied 40 DATP (8/8)): 32.86%
- Fruit on 24 plants (Tomato [1]; LCO applied 40 DATP (8/8)): 1318ab
- Weight (kg) per 24 plants (Tomato [1]; LCO applied 40 DATP (8/8)): 155.89ab kg
- % of weight vs. control (Tomato [1]; LCO applied 50 DATP (8/18)): 13.6%
- Average Weight (g/fruit) (Tomato [1]; LCO applied 50 DATP (8/18)): 138.7 g/fruit
- Fruit # % vs. control (Tomato [1]; LCO applied 50 DATP (8/18)): 12.40%
- Fruit on 24 plants (Tomato [1]; LCO applied 50 DATP (8/18)): 1115bc
- Weight (kg) per 24 plants (Tomato [1]; LCO applied 50 DATP (8/18)): 154.62ab kg
- increased fruit number compared to untreated control (Tomato [1]; best of 9 treatments): up to 38.4%
- increased total fruit weight compared to untreated control (Tomato [1]; best of 9 treatments): up to 27.8%
- Number of Flowers/Plant (Cobra tomatoes; 10 ng, Dec. 30): 1.2
- Number of Flowers/Plant (Cobra tomatoes; 10 ng, Jan. 07): 2.4
- Number of Fruit/Plant (Cobra tomatoes; 10 ng, Jan. 07): 0.3
- Number of Flowers/Plant (Cobra tomatoes; 10 ng, Jan. 15): 4.4
- Number of Fruit/Plant (Cobra tomatoes; 10 ng, Jan. 15): 1.8
- Number of Flowers/Plant (Cobra tomatoes; 10 ng, Jan. 22): 5.6
- Number of Fruit/Plant (Cobra tomatoes; 10 ng, Jan. 22): 2.1
- Number of Flowers/Plant (Cobra tomatoes; 10 ng, Jan. 31): 8.1
- Number of Fruit/Plant (Cobra tomatoes; 10 ng, Jan. 31): 2.5
- Fruit Weight (Cobra tomatoes; 10 ng, Mean of bases): 87.09 Gram/Plant
- Fruit Weight (Cobra tomatoes; 10 ng, base Bacterial Camer): 97.97 Gram/Plant
- Fruit Weight (Cobra tomatoes; 10 ng, base Bacterial Supernatent): 67.2 Gram/Plant
- Fruit Weight (Cobra tomatoes; 10 ng, base Water): 96.11 Gram/Plant
- early yield (fruit weight) vs untreated control (Cobra tomatoes; 50 ng LCO treatment): statistically significant effect
- more flowers than other treatments and control (Cobra tomatoes; January 15): 21%
- more flowers than other treatments and control (Cobra tomatoes; January 22): 14%
- Number of Flowers/Plant (Cobra tomatoes; 50 ng, Dec. 30): 0.97
- Number of Flowers/Plant (Cobra tomatoes; 50 ng, Jan. 07): 2.5
- Number of Fruit/Plant (Cobra tomatoes; 50 ng, Jan. 07): 0.33
- Number of Flowers/Plant (Cobra tomatoes; 50 ng, Jan. 15): 5.2
- Number of Fruit/Plant (Cobra tomatoes; 50 ng, Jan. 15): 2.2
- Number of Flowers/Plant (Cobra tomatoes; 50 ng, Jan. 22): 6.7
- Number of Fruit/Plant (Cobra tomatoes; 50 ng, Jan. 22): 2.5
- Number of Flowers/Plant (Cobra tomatoes; 50 ng, Jan. 31): 8.7
- Number of Fruit/Plant (Cobra tomatoes; 50 ng, Jan. 31): 2.9
- Fruit Weight (Cobra tomatoes; 50 ng, Mean of bases): 104.26 Gram/Plant
- Fruit Weight (Cobra tomatoes; 50 ng, base Bacterial Camer): 103.32 Gram/Plant
- Fruit Weight (Cobra tomatoes; 50 ng, base Bacterial Supernatent): 100.48 Gram/Plant
- Fruit Weight (Cobra tomatoes; 50 ng, base Water): 108.99 Gram/Plant
- Number of Flowers/Plant (Cobra tomatoes; 100 ng, Dec. 30): 0.9
- Number of Flowers/Plant (Cobra tomatoes; 100 ng, Jan. 07): 2.2
- Number of Fruit/Plant (Cobra tomatoes; 100 ng, Jan. 07): 0.37
- Number of Flowers/Plant (Cobra tomatoes; 100 ng, Jan. 15): 4.4
- Number of Fruit/Plant (Cobra tomatoes; 100 ng, Jan. 15): 1.7
- Number of Flowers/Plant (Cobra tomatoes; 100 ng, Jan. 22): 6.2
- Number of Fruit/Plant (Cobra tomatoes; 100 ng, Jan. 22): 2.1
- Number of Flowers/Plant (Cobra tomatoes; 100 ng, Jan. 31): 8.7
- Number of Fruit/Plant (Cobra tomatoes; 100 ng, Jan. 31): 2.6
- Fruit Weight (Cobra tomatoes; 100 ng, Mean of bases): 87.99 Gram/Plant
- Fruit Weight (Cobra tomatoes; 100 ng, base Bacterial Camer): 66.26 Gram/Plant
- Fruit Weight (Cobra tomatoes; 100 ng, base Bacterial Supernatent): 109.13 Gram/Plant
- Fruit Weight (Cobra tomatoes; 100 ng, base Water): 88.57 Gram/Plant
- advance of flowering over control (Cobra tomatoes; Trial 1, FIG. 5, Table 3): 4 to 5 days
- advance in early fruiting over control (Cobra tomatoes; Trial 1, second graph): 8 to 9 days
- optimal application (early fruit set) (Cobra tomatoes; three to four weeks after application): approximately 50 ng per plant
- increased fruit number (Tomato [2]): up to 33%
- advanced flowering (Marigolds): 2 days
- increase in number of flowers at 25 days (Marigolds): 8%
- plants with 4 flower buds per plant (Marigold; 50 ng treatment): 2
- Total Number of Marigold buds (Marigold; 20 ml/16 plants of 10^−7M LCO): 26
- Total Number of Marigold flower (Marigold; 20 ml/16 plants of 10^−7M LCO): 0
- Total Number of Marigold buds (Marigold; 20 ml/16 plants of 10^−8M LCO): 25
- Total Number of Marigold flower (Marigold; 20 ml/16 plants of 10^−8M LCO): 2
- Total Number of Marigold buds (Marigold; 20 ml/16 plants of 10^−9M LCO): 24
- Total Number of Marigold flower (Marigold; 20 ml/16 plants of 10^−9M LCO): 1
- Total Number of Marigold buds (Marigold; [5]): 34
- Total Number of Marigold flower (Marigold; [5]): 3
